Assay results as given in patent US20260041094A1, “Compositions Comprising an Antimicrobial Boosting Agent” (Symrise AG, priority 2022, published 2026).

Key:
Assay in all cases: Minimum Inhibitory Concentration (MIC) test, growth inhibition in 96 well plates via optical density
Format in all cases: cell-based
Aspergillus brasiliensis = settings: lowest concentration with complete growth inhibition, A. brasiliensis; for MIC: Aspergillus brasiliensis, read-out: MIC in ppm Aspergillus brasiliensis
Description: (§1) The Minimum Inhibitory Concentration (MIC) test is a test on growth inhibition. The estimation of MICs is executed in 96 well plates. Through the comparison of bacterial growth with positive and negative controls via optical density (OD), different concentrations of given test substances are evaluated.
(§2) Bacteria were cultivated under adjusted conditions based on information of the German Collection of Microorganisms and Cell Cultures (DSMZ) and stored in 10% or 50% glycerol prior to use. Afterwards, the following method was applied: Growth medium (according to microorganism) was added to each well of the microplate. Then, test-substances solved in DMSO, and strain specific benchmarks were added. Additionally, […] (water controls only with medium) and solvent controls (DMSO controls only with medium) were performed. Finally, the microorganisms were added in a concentration of 1 to 6×10^6 CFU/ml (CFU=colony forming units). The incubation of the microplates was carried out at appropriate conditions.
(§3) According to the resulting growth, substance concentrations are labelled either as inhibiting or not and MIC is defined as the lowest concentration where a complete growth inhibition is visible. Experiments at concentration limits (highest concentration labelled as growth and lowest concentration labelled as inhibiting) are performed at least twice.
(§4) Tested concentrations were adjusted to performance of test substance, but in general: 5,000 ppm steps between 50,000 ppm and 10,000 ppm, and 2500 ppm steps below 10,000 ppm, finishing with 1000 ppm. To enhance resolution of the approach, additional intermediate steps were included in individual cases. […] For ethylhexylglycerin and 1,2-pentanediol, pure substance without DMSO was tested.
(§5) To verify that the tested combinations act synergistically against microorganisms, corresponding experiments were conducted with Staphylococcus aureus, Candida albicans, Aspergillus brasiliensis, Pseudomonas aeruginosa and Escherichia coli. The synergistic activities of MAA-1 and different antimicrobial compounds in a mixture of 50% and 50% were determined by measuring the MIC of the mixture.
(§6) In order to calculate the synergy index with MIC values, the Kull equation was used as follows:
(§7) [formula] • wherein • SI is the Synergy Index according to Kull • MICA is the MIC value for Substance A • MICB is the MIC value for Substance B • MICmixture is the MIC value for the mixture of substances A and B • PA is the proportion of the substance A in the mixture • PB is the proportion of the substance B in the mixture
(§8) A Synergy Index (SI) with a value lower than 1 indicates a synergistic effect of the mixture that has been tested. Values higher than 1 indicate the absence of a synergistic effect.
(§9) For mixtures for which no MIC value has been determined, the calculation of an SI is not applicable (marked as n.a. in the following tables).

Candida albicans = settings: lowest concentration with complete growth inhibition, C. albicans; for MIC: Candida albicans, read-out: MIC in ppm Candida albicans
Description: as §1, §2, §3, §4, §5, §6, §7, §8, §9

Escherichia coli = settings: lowest concentration with complete growth inhibition, E. coli; for MIC: Escherichia coli, read-out: MIC in ppm Escherichia coli
Description: as §1, §2, §3, §4, §5, §6, §7, §8, §9

Pseudomonas aeruginosa = settings: lowest concentration with complete growth inhibition, P. aeruginosa; for MIC: Pseudomonas aeruginosa, read-out: MIC in ppm Pseudomonas aeruginosa
Description: as §1, §2, §3, §4, §5, §6, §7, §8, §9

Staphylococcus aureus = settings: lowest concentration with complete growth inhibition, S. aureus; for MIC: Staphylococcus aureus, read-out: MIC in ppm Staphylococcus aureus
Description: as §1, §2, §3, §4, §5, §6, §7, §8, §9

MIC (Aspergillus brasiliensis)	MIC (Candida albicans)	MIC (Escherichia coli)	MIC (Pseudomonas aeruginosa)	MIC (Staphylococcus aureus)	MIC in ppm Aspergillus brasiliensis (Aspergillus brasiliensis)	MIC in ppm Candida albicans (Candida albicans)	MIC in ppm Escherichia coli (Escherichia coli)	MIC in ppm Pseudomonas aeruginosa (Pseudomonas aeruginosa)	MIC in ppm Staphylococcus aureus (Staphylococcus aureus)	Structure (SMILES)
> 30 mg/mL	25 mg/mL	> 25 mg/mL	> 30 mg/mL	25 mg/mL						COc1ccc(/N=C2\CC(C)(C)CC3=C2SCC(C(=O)O)N3)cc1OC (stereo not drawn) [MAA-13, 8-((3,4-dimethoyxphenyl)imino)-6,6-dimethyl-3,4,5,6,7,8-hexahydro-2-H-benzol[b][1,4]thiazine-3-carboxylic acid]
> 30 mg/mL	> 25 mg/mL	15 mg/mL	> 30 mg/mL	> 25 mg/mL						CC1(C)CC(NCC(=O)O)=C/C(=N/c2ccccc2)C1 [MAA-20, 2-[(5,5-dimethyl-3-phenylimino-cyclohexen-1-yl)amino]acetic acid]
20 mg/mL	7.5 mg/mL	2.5 mg/mL	> 25 mg/mL	2.5 mg/mL						CCOC(=O)CNC1=C/C(=N/c2ccccc2)CC(C)(C)C1 [MAA-1]

Continued, compound first:

Structure (SMILES)	MIC (Aspergillus brasiliensis)	MIC (Candida albicans)	MIC (Escherichia coli)	MIC (Pseudomonas aeruginosa)	MIC (Staphylococcus aureus)	MIC in ppm Aspergillus brasiliensis (Aspergillus brasiliensis)	MIC in ppm Candida albicans (Candida albicans)	MIC in ppm Escherichia coli (Escherichia coli)	MIC in ppm Pseudomonas aeruginosa (Pseudomonas aeruginosa)	MIC in ppm Staphylococcus aureus (Staphylococcus aureus)
CCCCC(CC)COCC(O)CO (stereo not drawn) [Ethylhexylglycerin]						1,000 ppm	1,000 ppm	2,500 ppm	50,000 ppm	1,000 ppm
CC(=O)c1ccc(O)cc1 [4-Hydroxy-acetophenone, 4-Hydroxyacetophenone]						2,500 ppm	6,000 ppm	2,500 ppm	4,000 ppm	5,000 ppm
CCCC(O)CO (stereo not drawn) [1,2-Pentanediol]	17.5 mg/mL	12.5 mg/mL	15 mg/mL	30 mg/mL	35 mg/mL					
